Data set [1] has as its target T1, SARS-CoV-2 PL^pro (Severe acute respiratory syndrome coronavirus 2, UniProt P0DTD1). As to the kind of experiment: Thermal shift binding assay. To be noted: effect on stability of PL^pro.
Data set [2] addresses T1, SARS-CoV-2 PL^pro. It counts as biochemical. To be noted: 200 nM PL^pro, 5 mM DTT, pH 7.5, 30 °C; highest concentration 60 μM.
In a further data set the test system is MERS-CoV PL^pro. To be noted: read-out: IC50 against MERS-CoV PL^pro; cited from earlier work.
In data set [3] the target is T1, SARS-CoV-2 PL^pro. As to the kind of experiment: cell-based.
The test system of another data set is SARS-CoV PL^pro. To be noted: read-out: IC50 against SARS-CoV PL^pro; cited from earlier work.

Structures are written as SMILES.

As for `Sc1ncnc2nc[nH]c12` [6-mercaptopurine], the “TSA binding result (in words)” value at SARS-CoV-2 PL^pro [1] is recorded as “not active”. Besides, the “Validation FRET IC50” value on SARS-CoV-2 PL^pro [2] is given as “not active”. In addition, the IC50 with MERS-CoV PL^pro was 26.9 µM; with SARS-CoV PL^pro, 21.6 µM. Further, the “FlipGFP EC50” value at SARS-CoV-2 PL^pro [3] is “not active”.

As to `Nc1nc2nc[nH]c2c(=S)[nH]1` [6-thioguanine], the “TSA binding result (in words)” value at SARS-CoV-2 PL^pro [1] is “did not show binding”. Moreover, the IC50 is 24.4 µM in the data set on MERS-CoV PL^pro and 5 µM in the data set with SARS-CoV PL^pro. Besides, the “FlipGFP EC50” value on SARS-CoV-2 PL^pro [3] was “not active”.

With `C[C@H]1COC2=C1C(=O)C(=O)c1c2ccc2c1CCCC2(C)C` [Cryptotanshinone], at SARS-CoV-2 PL^pro [1], the “TSA binding result (in words)” value was “destabilization”. On SARS-CoV-2 PL^pro [3], the “FlipGFP EC50” value is given as “not active”.

In the case of `Cc1cccc2c3c(ccc12)C1=C(C(=O)C3=O)[C@@H](C)CO1` [Dihydrotanshinone I], at SARS-CoV-2 PL^pro [1], the “TSA binding result (in words)” value is on record as “did not bind”. Also, the “FlipGFP EC50” value on SARS-CoV-2 PL^pro [3] is recorded as “not active”.

For `Cc1coc2c1C(=O)C(=O)c1c-2ccc2c1CCCC2(C)C` [Tanshinone IIA], the “TSA binding result (in words)” value on SARS-CoV-2 PL^pro [1] is “denaturation of the protein (no melting peak)”. Moreover, the “FlipGFP EC50” value on SARS-CoV-2 PL^pro [3] is reported as “not active”. The EC50 at SARS-CoV-2 PL^pro [3] (FlipGFP EC50) is greater than 20 µM.

For the compound `Cc1coc2c1C(=O)C(=O)c1c-2ccc2c(C)cccc12` [Tanshinone I], the “TSA binding result (in words)” value at SARS-CoV-2 PL^pro [1] was “destabilization”. In addition, the “FlipGFP EC50” value on SARS-CoV-2 PL^pro [3] was “not active”.

For `COCCn1c2c([n+](Cc3cnccn3)c1C)C(=O)c1ccccc1C2=O` [YM155], at SARS-CoV-2 PL^pro [1], the “TSA binding result (in words)” value is “no effect”. Moreover, in the data set with 293T cells, the “Cytotoxicity in FlipGFP assay (in words)” value is “cytotoxic”. For the same compound, at SARS-CoV-2 PL^pro [3], the “FlipGFP EC50” value is “not conclusive”.

By IC50 is commonly meant the concentration at which inhibition is half-maximal. For orientation: EC50 means the concentration needed to bring the measured effect to its halfway point. Low readings indicate a more potent agent, high ones a less potent agent.

These data come from article PMC8806001 (ACS Pharmacology & Translational Science, 2022).
